Results on 5 compounds are retold here after article PMC8305768, “Design, Synthesis and Antiparasitic Evaluation of Click Phospholipids” (Molecules, 2021).

Where a name gives a salt, the structure may show the parent alone. Read-outs that look alike come from different tables or passages of the source.

One data set deals with T1, Aurora B kinase (Homo sapiens, UniProt Q96GD4).
T1 construct: purchased Promega Corp
The data set can be described thus: Aurora B kinase assay (ADP-Glo). It counts as biochemical. The following applies: compounds 10 μM; miltefosine 10 μM or 1 μM; read-out: % inhibition ± SD at 10 μΜ Aurora B. The procedure: Aurora B kinase assay: Inhibition of Aurora B kinase was determined using the ADP-Glo Kinase Enzyme System (Promega Corp., Madison, WI, USA). The positive control was SU6656 at a final concentration of 1 μM, with the NC being DMSO at the same concentration (v/v). An enzyme master mix containing 1 × buffer, 50 μM DTT and 17.5 ng/μL ([…]) Aurora B (all reagents provided in the kit) was prepared. A substrate master mix containing 1 × buffer, 36 μM adenosine triphosphate (ATP) and 7.5 ng/μL (15 ng/well) myelin basic protein (MBP) as a substrate (buffer and MBP were provided in the Aurora B Kinase Enzyme System; ultrapure ATP was provided in the ADP-Glo Kinase Assay System) was prepared. Two microliters of the enzyme master mix and 2 μL of the substrate master mix were added to each well of a 384-well low-volume plate. The plate was sealed using Thermowell sealing tape (Corning Inc., Corning, NY, USA) and incubated for 45 min at rt. The enzymatic reaction was stopped by adding 4 μL of ADP-Glo reagent (provided in the ADP-Glo Kinase Assay System) and the plate sealed using Thermowell sealing tape and incubated for 40 min at rt. Following this, 8 μL of detection reagent was added to each well, and the plate was sealed again and incubated for 45 min at rt, with the luminescence measured using the EnVision Multilabel 2103 Reader (PerkinElmer, Waltham, MA. USA). DMSO concentration was tolerated up to 2% v/v final.

Data set [1] has as its system PMA-differentiated THP-1 cells. The data set can be described thus: Cytotoxicity against THP-1 macrophages (MTT). It counts as cell-based. The note with it: PMA-differentiated THP-1 macrophages, 72 h, read-out: Toxicity CC50 ± SD Or CC50 Interval Estimation.
On the set-up of data set [2]: method as in PMID 18472998, PMID 22573856. The note with it: in humans ref 12,13; cited from earlier work.
The subject of data set [3] is T. cruzi intracellular amastigotes (Y strain). The data set can be described thus: T. cruzi intracellular amastigotes in Swiss mouse peritoneal macrophages (high content imaging). The data set is classed as cell-based. The note with it: Trypanosoma cruzi, Peritoneal macrophage.
Method: The trypomastigotes were obtained from the supernatant of a previously infected cell line (LLC-MK2). Between 5 and 7 days after infection, protozoa were collected from the supernatants of the infected LLC-MK2 cells and were then incubated with fresh RPMI 1640 medium supplemented with 0.5% FBS, with or without the compounds, for 24 h at 37 °C under a 5% CO2 atmosphere. […] The experiment was performed in duplicate for each of the three different experiments. […] To investigate the effect of the compounds on intracellular amastigotes, peritoneal macrophages from Swiss mouse (CF1) plated in 96 wells plates (Costar®, Sigma, São Paulo, Brazil) were incubated for 2 h with T. cruzi trypomastigotes at a ratio of 10 parasites to 1 cell. The non-internalized parasites were removed by washing with the RPMI 1640 medium, and the host cells were incubated for 24 h at 37 °C to allow full internalization and differentiation of trypomastigotes to amastigotes. Fresh 10% FBS-RPMI 1640 medium with 1 µg/mL Hoescht 3348 and 1 µg/mL of WGA-FITC (control) or the same solution containing the inhibitors was added to the infected cells, which were then incubated for 96 h at 37 °C. Every 24 h samples were taken and analysed in high content equipment (InCell Analyser 2000, GE Healthcare, Chicago, IL, USA) with 20× air objective (NA 0.4) using respectively filters to excitation and emission to DAPI (405/455 nm), FITC (488/505 nm) and Cy3 (514/605 nm). Six images were collected for each well for reliable statistical analysis. […] The infection index (i.e., the percentage of infected host cells multiplied by the average number of intracellular amastigotes per infected host cell) was determined by counting a total of 500 host cells. Inhibitor activity was calculated using the SigmaPlot (version 10) program (Systat Software, Inc., San Jose, CA, USA). The results are expressed as the mean values from three independent experiments. The IC50 was calculated for promastigotes and intracellular amastigotes by fitting the values to a non-linear curve analysis. […]

By inhibition is commonly meant the change of the read-out against control, counted positive when it falls. Usually CC50 stands for the concentration giving 50% cytotoxicity. A word on the half-life: it is the time in which the quantity being followed falls by half. The term IC50 denotes the concentration that gives 50% inhibition.

T1 sequence (Q96GD4 whole entry): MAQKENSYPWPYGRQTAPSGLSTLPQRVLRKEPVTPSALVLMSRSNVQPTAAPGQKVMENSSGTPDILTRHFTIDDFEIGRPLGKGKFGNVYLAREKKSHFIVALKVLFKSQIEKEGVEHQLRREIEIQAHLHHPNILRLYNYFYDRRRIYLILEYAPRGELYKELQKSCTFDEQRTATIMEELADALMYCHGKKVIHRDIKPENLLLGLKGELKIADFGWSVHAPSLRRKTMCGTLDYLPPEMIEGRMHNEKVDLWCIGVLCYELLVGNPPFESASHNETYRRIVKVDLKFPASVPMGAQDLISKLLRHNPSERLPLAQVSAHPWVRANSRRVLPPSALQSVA

Consider `CCCCCc1cn(CCCCCCCCCCCOP(=O)([O-])OCC[N+](C)(C)C)nn1` [Compound 25, 11-(4-pentyl-1H-1,2,3-triazol-1-yl)undecyl (2-(trimethylammonio)ethyl) phosphate inner salt], for which, at Aurora B kinase, the inhibition at 10 µM was -10.3%. Still for that read-out and setting: with `C[N+](C)(C)CCOP(=O)([O-])OCCCCCCCCCCCn1cc(CC2CCCC2)nn1` [Compound 28, 11-(4-(cyclopentylmethyl)-1H-1,2,3-triazol-1-yl)undecyl (2-(trimethylammo nio)ethyl) phosphate inner salt] the figure was -11.7%. For `C[N+](C)(C)CCOP(=O)([O-])OCCCCCCCCCCCn1cc(CC2CCCCC2)nn1` [Compound 29, 11-(4-(cyclohexylmethyl)-1H-1,2,3-triazol-1-yl)undecyl (2-(trimethylammonio)ethyl) phosphate inner salt], the inhibition at 10 µM at Aurora B kinase was -6.17%.

For `CCCCCCCCc1noc(CCCCCCCCCCOP(=O)([O-])OCC[N+](C)(C)C)n1` [Compound 54, 10-(3-octyl-1,2,4-oxadiazol-5-yl)decyl (2-(trimethylammonio)ethyl) phosphate inner salt], in data set [1], the half-maximal cytotoxic concentration (CC50) was 10.8 µM.

For `CCCCCCCCCCCCCCCCOP(=O)([O-])OCC[N+](C)(C)C` [Miltefosine, hexadecylphosphocholine, reference compound], the half-life in data set [2] is 100 to 200 h. For the same compound, the inhibition at 10 µM on Aurora B kinase is -12.5%. The IC50 in data set [3] (24 h, read-out: IC50 24 h) worked out at 12.4 ± 0.6 µM; in data set [3] (48 h, read-out: IC50 48 h), 4.59 ± 0.1 µM; in data set [3] (72 h, read-out: IC50 72 h) it was 4.3 ± 0.12 µM.
